{"source": "patent EP4268823A1", "about": "“COMPOUND FOR TREATING NEUROINFLAMMATION” (Universitätsklinikum Hamburg-Eppendorf, priority 2022, dated 2023)", "format_in_all_cases": "cell-based, mouse", "key": {"[1]": {"system": "primary neuronal cultures", "test": "Cytosolic calcium imaging of glutamate-exposed neuronal cultures", "conditions": "UNC0642 pre-treatment plus ferroptosis inhibitor (ferrostatin-1)", "experimental": "(§1) For primary cortical cultures pregnant C57BL/6J, or G9afl/fl;Snap25-Cre mice were euthanized. To ensure comparability between genotypes, only embryos from heterozygous breeding's were used. Brainstem tissue of each embryo for genotyping was reserved and cortices were isolated, dissociated and cells were plated at a density of 1 × 10^5 cells per 1 cm^2 on poly-D-lysine-coated wells (5 µM Sigma-Aldrich, cat. no. A-003-M). If not stated otherwise, cells were maintained in neurobasal plus medium (supplemented with B27 plus, penicillin, streptomycin and L-glutamine; Gibco, cat. no. A3582901) at 37°C, 5% CO^2 and a relative humidity of 98%, and treated with 1 µM cytarabine (Sigma-Aldrich, cat. no. BP383) at 1 day in vitro (div) to inhibit glial cell proliferation. If no cytarabine was applied cells were maintained in PNBM medium (supplemented with neural cell survival factor, gentamycin and L-glutamine; Lonza). Throughout, cultures after 14-23 div were used for experiments. G9a inhibitor UNC0642 was used in a concentration of 1 µM and cultures were pre-treated 24 hours before further experimental procedures.\nPrimary neuronal cultures were seeded on Ibidi 60 µ-Dish Quad (cat. No. 80411) plates. Cultures were infected with an AAV7 containing pAAV-Syn-GCamp6f-WPRE-SV40 (86) (Addgene 100837) at 7-10 div with a 20,000-fold multiplicity of infection (MOI). AAV particles were produced according to the standard procedures of the UKE vector facility. Images were acquired with a confocal LSM 700 laser scanning confocal microscope (Zeiss) every 0.48 seconds with a 20× magnification in an imaging chamber maintaining 37 °C and 5% CO2. Infected cultures were imaged in the respective culture medium. Before applying the indicated chemicals, 5-10 min of baseline activity was first recorded. At the end of the recording, 8 µM ionomycin was applied to induce the maximum cellular calcium response that was used for normalization. For data analysis, mean fluorescence values of every cell were measured using Fiji software (NIH) and normalized to the maximal calcium response after ionomycin challenge. For each cell, mean AUC of the calcium response was calculated using a custom R script."}, "[2]": {"system": "primary neuronal cultures", "test": "Cytosolic calcium imaging of H2O2-exposed neuronal cultures", "conditions": "acute hydrogen peroxide stimulation, UNC0642 vs. DMSO", "experimental": "as §1, with “Throughout, cultures after 14-23 div were used for experiments. G9a inhibitor UNC0642 was used in a concentration of 1 µM and cultures were pre-treated 24 hours before further experimental procedures.” left out\nPrimary neuronal cultures were seeded on Ibidi 60 µ-Dish Quad (cat. No. 80411) plates. […] Before applying the indicated chemicals, 5-10 min of baseline activity was first recorded. […] For data analysis, mean fluorescence values of every cell were measured using Fiji software (NIH) and normalized to the maximal calcium response after ionomycin challenge. For each cell, mean AUC of the calcium response was calculated using a custom R script."}, "glutathione": {"system": "glutathione", "test": "GSH-Glo glutathione measurement after glutamate", "conditions": "primary cortical neurons, glutamate 2 hours, UNC0642-treated", "experimental": "as §1\nGSH-Glo Glutathione assay (Promega) was used as described by the manufacturer. Primary cortical neurons were cultured in a 96-well plate and stimulated with glutamate for 2 hours. […] After 15 min, luminescence was detected at a Spark 10M multimode microplate reader (Tecan)."}}, "data": [{"smiles": "COc1cc2c(NC3CCN(C(C)C)CC3)nc(N3CCC(F)(F)CC3)nc2cc1OCCCN1CCCC1", "note": "[UNC0642, 2-(4,4-difluoropiperidin-1-yl)-6-methoxy-N-[1-(propan-2-yl)piperidin-4-yl]-7-[3-(pyrrolidin-1-yl)propoxy]quinazolin-4-amine]", "values": [{"measurement": "potentiation of rescue effects of ferroptosis inhibition on glutamate-induced calcium overload", "setting": "[1]", "result": "did not further potentiate the rescue effects of ferroptosis inhibition"}, {"measurement": "hydrogen peroxide-induced calcium overload", "setting": "[2]", "result": "rescued hydrogen peroxide-induced calcium overload"}, {"measurement": "glutathione levels", "setting": "glutathione", "result": "partial rescue of glutathione levels"}]}]}
